Measurements published in US7897543B2, “Spiroketal-substituted cyclic ketoenols” (Bayer CropScience AG, priority 2005, dated 2011).
Marks after values point to notes of the source that are not given here.

Tests used:
Phaedon cochleariae = experiment: Example N: Phaedon Test (spray treatment); type: in vivo; details: application rate 500 g/ha
Method: [table] To produce a suitable preparation of active compound, 1 part by weight of active compound is mixed with the stated amounts of solvents and emulsifier, and the concentrate is diluted with emulsifier-containing water to the desired concentration. Discs of Chinese cabbage (Brassica pekinensis) are sprayed with a preparation of active compound of the desired concentration and, after drying, populated with larvae of the mustard beetle (Phaedon cochleariae).

[1] = log P determination by HPLC/LC-MS retention times, calibration with alkan-2-ones; type: physicochemical; details: for log P: HPLC on reversed-phase column (C 18), 43° C., EEC Directive 79/831 Annex V.A8
Method: In the acidic range, the determination is carried out at pH 2.3 using 0.1% aqueous phosphoric acid and acetonitrile as mobile phases; linear gradient from 10% acetonitrile to 95% acetonitrile.
The determination by LC-MS in the acidic range is carried out at pH 2.7 using 0.1% aqueous formic acid and acetonitrile (comprises 0.1% formic acid) as mobile phases; linear gradient from 10% acetonitrile to 95% acetonitrile.
The determination by LC-MS in the neutral range is carried out at pH 7.8 using 0.001 molar aqueous ammonium bicarbonate solution and acetonitrile as mobile phases; linear gradient from 10% acetonitrile to 95% acetonitrile.
Calibration is carried out using unbranched alkan-2-ones (having 3 to 16 carbon atoms) with known log P values (determination of the log P values by the retention times using linear interpolation between two successive alkanones).

Test plants = experiment: Example U: Pre-emergence Test; type: in vivo; details: greenhouse, 250 g of a.i./ha, after three weeks
Method: To produce a suitable preparation of active compound, 1 part by weight of active compound is mixed with the stated amount of solvent, the stated amount of emulsifier is added and the concentrate is diluted with water to the desired concentration.
Seeds of the test plants are sown in normal soil. After about 24 hours, the soil is sprayed with the preparation of active compound such that the particular amounts of active compound desired are applied per unit area. The concentration of the spray liquor is chosen such that the particular amounts of active compound desired are applied in 1000 l of water/ha.
After three weeks, the degree of damage to the plants is rated in % damage in comparison to the development of the untreated control.
The figures denote: • 0%=no effect (like untreated control) • 100%=total destruction

Lolium multiflorum = experiment: Example V 2: Herbicidal Post-Emergence Action; type: in vivo; details: greenhouse, 320 g of a.i./ha, about 3 weeks
Method: (§1) Seeds of monocotyledonous and dicotyledonous weed and crop plants are placed into sandy loam in wood fibre pots, covered with soil and cultivated in a greenhouse under good growth conditions. 2-3 weeks after sowing, the test plants are treated at the one-leaf stage. The test compounds, formulated as wettable powders (WP), are then, in various dosages with a water application rate of 600 l/ha (converted), with 0.2% of wetting agent added, sprayed onto the green parts of the plants. After the test plants have been kept in the greenhouse under optimum growth conditions for about 3 weeks, the effect of the preparations is rated visually in comparison to untreated controls (herbicidal effect in percent (%): 100% effect=the plants have died, 0% effect=like control plants).

Setaria viridis = experiment: Example V 2: Herbicidal Post-Emergence Action; type: in vivo; details: greenhouse, 320 g of a.i./ha, about 3 weeks
Method: as §1

[2] = tested on: monocotyledonous and dicotyledonous weed and crop plants; experiment: Example V 2: Herbicidal Post-Emergence Action; type: in vivo; details: greenhouse, 320 g of a.i./ha, about 3 weeks
Method: as §1

Echinocloa crus-galli = experiment: Example V 2: Herbicidal Post-Emergence Action; type: in vivo; details: greenhouse, 320 g of a.i./ha, about 3 weeks
Method: as §1

Row | SMILES | activity in % (Phaedon cochleariae) [%] | also measured
1 | Cc1cc(C)c(C2=C(O)C3(CCC4(CC3)OC(C)C(C)O4)NC2=O)c(C)c1 (mixture of isomers) [Ex. I-1-a-10] | 100 | –
2 | Cc1cc(Cl)cc(C)c1C1=C(O)C2(CCC3(CC2)OC(C)C(C)O3)NC1=O (mixture of isomers) [Ex. I-1-a-30] | 100 | –
3 | Cc1cc(Cl)cc(C)c1C1=C(O)C2(CCC3(CC2)OCC(C)O3)NC1=O (mixture of isomers) [Ex. I-1-a-31] | 100 | –
4 | Cc1cc(Br)cc(C)c1C1=C(O)C2(CCC3(CC2)OCC(C)CO3)NC1=O (mixture of isomers) [Ex. I-1-a-32] | 100 | –
5 | Cc1cc(Cl)cc(C)c1C1=C(O)C2(CCC3(CC2)OCC(C)CO3)NC1=O (mixture of isomers) [Ex. I-1-a-34] | 100 | –
6 | Cc1cc(Cl)cc(C)c1C1=C(O)C2(CCC3(CC2)OC(C)CC(C)O3)NC1=O (mixture of isomers) [Ex. I-1-a-38] | 100 | –
7 | CCc1cc(Br)cc(C)c1C1=C(O)C2(CCC3(CC2)OC(C)C(C)O3)NC1=O (mixture of isomers) [Ex. I-1-a-45] | 100 | –
8 | Cc1cc(Br)cc(C)c1C1=C(O)C2(CCC3(CC2)OC(C)C(C)O3)NC1=O (mixture of isomers) [Ex. I-1-a-46] | 100 | –
9 | Cc1cc(Br)cc(C)c1C1=C(O)C2(CCC3(CC2)OCC(C)O3)NC1=O (mixture of isomers) [Ex. I-1-a-47] | 100 | –
10 | Cc1ccc(-c2ccc(Cl)cc2)c(C)c1C1=C(O)C2(CCC3(CC2)OCC(C)O3)NC1=O (mixture of isomers) [Ex. I-1-a-51] | 100 | –
11 | Cc1ccc(-c2ccc(Cl)cc2)cc1C1=C(O)C2(CCC3(CC2)OCC(C)O3)NC1=O (mixture of isomers) [Ex. I-1-a-52] | 100 | –
12 | CCc1cc(Br)cc(C)c1C1=C(O)C2(CCC3(CC2)OCC(C)O3)NC1=O (mixture of isomers) [Ex. I-1-a-53] | 100 | –
13 | Cc1ccc(-c2ccc(Cl)cc2)cc1C1=C(O)C2(CCC3(CC2)OC(C)C(C)O3)NC1=O (mixture of isomers) [Ex. I-1-a-54] | 100 | –
14 | Cc1cc(Br)cc(C)c1C1=C(O)C2(CCC3(CC2)OC(C)CC(C)O3)NC1=O (mixture of isomers) [Ex. I-1-a-56] | 100 | –
15 | CCc1cc(Br)cc(C)c1C1=C(O)C2(CCC3(CC2)OC(C)CC(C)O3)NC1=O (mixture of isomers) [Ex. I-1-a-63] | 100 | –
16 | CC1COC2(CCC3(CC2)NC(=O)C(c2cc(-c4ccc(Cl)cc4)ccc2Cl)=C3O)OC1 (mixture of isomers) [Ex. I-1-a-65] | 100 | –
17 | Cc1ccc(-c2ccc(Cl)cc2)cc1C1=C(O)C2(CCC3(CC2)OCCC(C)O3)NC1=O (mixture of isomers) [Ex. I-1-a-66] | 100 | –
18 | COCC1COC2(CCCC3(C2)NC(=O)C(c2c(C)cc(C)cc2C)=C3O)O1 (mixture of isomers) [Ex. I-1-a-71] | 100 | –
19 | CCOC(=O)OC1=C(c2cc(C)ccc2C)C(=O)NC12CCC1(CC2)OCC(C)O1 (mixture of isomers) [Ex. I-1-c-19] | 100 | –
20 | CCCC1COC2(CCC3(CC2)NC(=O)C(c2c(C)cc(C)cc2C)=C3O)O1 (single isomer, unassigned) [Ex. I-1-a-9] | 100 | logP ([1]; printed in the Isomer column of the (I-1-a) table): 2.78
21 | CCCC1COC2(CCC3(CC2)NC(=O)C(c2c(C)cc(C)cc2C)=C3O)O1 (stereo not drawn) [Ex. I-1-a-8] | 100 | chromatographic logP ([1]; HPLC/LC-MS retention times, printed in the Isomer column of the (I-1-a) table): 2.73
22 | Cc1cc(Cl)cc(Cl)c1C1=C(O)C2(CCC3(CC2)OCCCO3)NC1=O [Ex. I-1-a-11] | – | damage, Alopecurus (Test plants; sub-table 2): 90%; damage, Avena fatua (Test plants; sub-table 2): 70%; damage, Echinochloa (Test plants; sub-table 2): 80%; damage, Setaria (Test plants; sub-table 2): 90%; damage, Alopecurus (Test plants; sub-table 4): 80%; damage, Echinochloa (Test plants; sub-table 4): 80%; damage, Setaria (Test plants; sub-table 4): 100%
23 | Cc1cc(Cl)cc(C)c1C1=C(O)C2(CCC3(CC2)OCCCO3)NC1=O [Ex. I-1-a-14] | – | damage, Sugar beet (Test plants; crop plant, sub-table 3): 0%; damage, Alopecurus (Test plants; sub-table 3): 95%; damage, Avena fatua (Test plants; sub-table 3): 80%; damage, Echinochloa (Test plants; sub-table 3): 80%; damage, Setaria (Test plants; sub-table 3): 90%
24 | Cc1ccc(-c2ccc(Cl)cc2)cc1C1=C(O)C2(CCC3(CC2)OCCCO3)NC1=O [Ex. I-1-a-16] | 100 | –
25 | Cc1cc(Cl)cc(C)c1C1=C(O)C2(CCC3(CC2)OCC(C)(C)CO3)NC1=O [Ex. I-1-a-20] | 100 | –

Row | SMILES | activity in % (Phaedon cochleariae) [%] | also measured
26 | COc1cc(C)cc(C)c1C1=C(O)C2(CCC3(CC2)OCCCO3)NC1=O [Ex. I-1-a-24] | 100 | –
27 | Cc1ccc(-c2ccc(Cl)cc2)cc1C1=C(O)C2(CCC3(CC2)OCCO3)NC1=O [Ex. I-1-a-27] | 100 | –
28 | Cc1cc(Br)cc(C)c1C1=C(O)C2(CCC3(CC2)OCC(C)(C)CO3)NC1=O [Ex. I-1-a-33] | 100 | –
29 | CCc1cc(Br)cc(C)c1C1=C(O)C2(CCC3(CC2)OCCO3)NC1=O [Ex. I-1-a-39] | 100 | –
30 | COc1cc(C)cc(C)c1C1=C(O)C2(CCC3(CC2)OCCO3)NC1=O [Ex. I-1-a-43] | 100 | –
31 | O=C1NC2(CCC3(CC2)OCCO3)C(O)=C1c1cc(-c2ccc(Cl)cc2)ccc1Cl [Ex. I-1-a-49] | 100 | –
32 | Cc1ccc(C)c(C2=C(O)C3(CCC4(CC3)OCC(C)(C)CO4)NC2=O)c1 [Ex. I-1-a-61] | 100 | –
33 | CC1(C)COC2(CCC3(CC2)NC(=O)C(c2cc(-c4ccc(Cl)cc4)ccc2Cl)=C3O)OC1 [Ex. I-1-a-64] | 100 | –
34 | Cc1ccc(-c2ccc(Cl)cc2)cc1C1=C(O)C2(CCC3(CC2)OCC(C)(C)CO3)NC1=O [Ex. I-1-a-67] | 100 | –
35 | Cc1ccc(C)c(C2=C(O)C3(CCC4(CC3)OCCO4)NC2=O)c1 [Ex. I-1-a-68] | 100 | –
36 | CCOC(=O)OC1=C(c2c(C)cc(Cl)cc2Cl)C(=O)NC12CCC1(CC2)OCCO1 [Ex. I-1-c-4] | – | damage, Alopecurus (Test plants; sub-table 2): 80%; damage, Echinochloa (Test plants; sub-table 2): 90%; damage, Setaria (Test plants; sub-table 2): 99%; damage, Sinapis (Test plants; sub-table 2): 80%
37 | CCOC(=O)OC1=C(c2cc(-c3ccc(Cl)cc3)ccc2C)C(=O)NC12CCC1(CC2)OCCCO1 [Ex. I-1-c-31] | 100 | –
38 | CCOC(=O)OC1=C(c2c(C)cc(C)cc2OC)C(=O)NC12CCC1(CC2)OCCCO1 [Ex. I-1-c-34] | 100 | –
39 | Cc1cc(Br)cc(C)c1C1=C(O)C2(CCC3(CC2)OCCO3)OC1=O [Ex. I-2-a-5] | – | herbicidal effect, Lolium (Lolium multiflorum): 100%; herbicidal effect, Setaria (Setaria viridis): 70%; herbicidal effect, Amaranthus [2]: 70%; herbicidal effect, Stellaria [2]: 60%
40 | Cc1cc(Cl)cc(C)c1C1=C(OC(=O)C(C)C)C2(CCC3(CC2)OCC(CCl)O3)OC1=O (stereo not drawn) [Ex. I-2-b-3] | – | herbicidal effect, Echinochloa (Echinocloa crus-galli): 80%; herbicidal effect, Lolium (Lolium multiflorum): 100%; herbicidal effect, Setaria (Setaria viridis): 90%
41 | COC(=O)C1(NC(=O)Cc2c(C)cc(C)cc2C)CCC2(CC1)OCCO2 [II-2] | – | log P [1]: log P 2.68
42 | COC(=O)C1(NC(=O)Cc2c(C)cc(Br)cc2C)CCC2(CC1)OCCO2 [II-7] | – | log P [1]: wax log P 2.81*
43 | CCc1cc(C)cc(C)c1CC(=O)NC1(C(=O)OC)CCC2(CC1)OCCO2 [II-8] | – | log P [1]: wax log P 2.95*
44 | CCc1cc(Br)cc(C)c1CC(=O)NC1(C(=O)OC)CCC2(CC1)OCCO2 [II-9] | – | log P [1]: wax log P 3.19*
45 | COC(=O)C1(NC(=O)Cc2cc(C)c(C)cc2C)CCC2(CC1)OCCCO2 [II-17] | – | log P [1]: log P 2.59*
46 | COC(=O)C1(NC(=O)Cc2c(C)cc(C)cc2OC)CCC2(CC1)OCCCO2 [II-24] | – | log P [1]: log P 2.49*
47 | COC(=O)C1(NC(=O)Cc2cc(-c3ccc(Cl)cc3)ccc2C)CCC2(CC1)OCCO2 [II-31] | – | log P [1]: log P 3.47*
48 | CCc1cc(C)cc(CC)c1CC(=O)NC1(C(=O)OC)CCC2(CC1)OCCO2 [II-32] | – | log P [1]: log P 3.28*
49 | CCc1cc(C)cc(Br)c1CC(=O)NC1(C(=O)OC)CCC2(CC1)OCCO2 [II-36] | – | log P [1]: log P 3.04*
